Consider 5 molecules from paper PMC11085156 (Molecules, 2024).

Each structure is given as a SMILES string. Like-named read-outs stand apart in the source and are kept apart here.

Series [1] has as its system ACTA2, COL1A1, COL3A1, TGFB1, TGFB2, TGFBR1, MMP1, and MMP3. The series can be described thus: qRT-PCR gene expression in drug-treated fibroblasts: panel of fibrosis-related marker genes. It is filed as cell-based, human. Particulars: 4 d treatment; 50 µM. How it is done: Drug treatments were performed as follows. […] RNA from cells after 4 d of drug treatment was isolated using the NucleoSpin RNA/protein mini kit (Macherey-Nagel, Allentown, PA, USA, 740933.50) according to the manufacturer’s instructions. The concentration of isolated RNA was measured using a Nanodrop 2000c Spectrophotometer (Thermo Scientific). […] A SYBR-based PowerTrack master mix (Thermo Fisher Scientific A46012) was used to perform RT-qPCR on a QuantStudio 6 Pro Real-Time PCR system (Thermo Fisher Scientific) in 10 μL reactions. The thermal protocol was as follows: 95 °C for 2 min, then 40 cycles of 95 °C for 15 s and 60 °C for 60 s. PCR primer sequences are listed in Table 2 and were the same as used in Larson et al., 2019 [17]. Fold change in gene expression was determined using the ΔΔCT method with GAPDH as the housekeeping gene.
(Quantitative PCR measures a nucleic acid by following its amplification.)

The subject of series [2] is smooth-muscle α-actin (α-SMA). The series can be described thus: Immunofluorescence staining for α-SMA in treated fibroblasts. To be noted: 4 d treatment, 50 µM drug or tea (A. afra 1/4X). It counts as cell-based, human. The source says: After 1 and 4 d, cells were fixed with paraformaldehyde and stained for immunofluorescence using primary mouse anti-α-SMA (Santa Cruz Biotechnology, Dallas, TX, USA, sc-32251) and secondary goat anti-mouse IgG AlexaFluor488-conjugated antibodies (Thermo Fisher Scientific A-11001), and DNA was counterstained with Hoechst 33342 as previously described.

Series [3] can be described thus: GC-MS analysis of culture media incubated with drugs in the absence of cells. It counts as physicochemical.
Series [4] has as its system human dermal fibroblasts (CRL-2097). The series can be described thus: Resazurin viability assay of human dermal fibroblasts. Particulars: for change in fibroblast viability: 50 µM. Background: Resazurin is reduced to fluorescent resorufin, in cell work by metabolically active cells.
Description: (§1) DMSO and water were the solvent controls for the artemisinic compounds and teas, respectively. Fibroblasts (passages 10–14) were seeded in 6-well plates in 2 mL medium at a density of 6250 cells/cm^2. After overnight attachment, media were aspirated and replaced with test drugs in growth media at the indicated concentrations and incubated at 37 °C and 5% CO2 in high humidity.
(§2) After 1 or 4 d of treatment, media were aspirated and replaced with media containing resazurin (Thermo Fisher Scientific B21187.03) at a final concentration of 25 µg/mL (stock solution 0.15 mg/mL in DPBS). […] Fluorescence readings were normalized to the appropriate solvent controls.
For series [5], the system named is TGFB2. The series can be described thus: qRT-PCR gene expression in drug-treated fibroblasts: TGFB2. To be noted: 4 d treatment; 50 µM; GAPDH internal control. It counts as cell-based, human.
Description: (§3) DMSO and water were the solvent controls for the artemisinic compounds and teas, respectively. Fibroblasts (passages 10–14) were seeded in 6-well plates in 2 mL medium at a density of 6250 cells/cm^2. After overnight attachment, media were aspirated and replaced with test drugs in growth media at the indicated concentrations and incubated at 37 °C and 5% CO2 in high humidity. After 4 d of drug treatment, cells were harvested, washed with 1× Dulbecco’s phosphate-buffered saline (DPBS; Thermo Fisher Scientific 14190136), snap frozen in liquid nitrogen, and stored at −80 °C until the time of RNA extraction for analysis.
(§4) RNA from cells after 4 d of drug treatment was isolated using the NucleoSpin RNA/protein mini kit (Macherey-Nagel, Allentown, PA, USA, 740933.50) according to the manufacturer’s instructions. The concentration of isolated RNA was measured using a Nanodrop 2000c Spectrophotometer (Thermo Scientific). Complementary DNA (cDNA) was synthesized from RNA using a QuantiTect reverse transcription kit (Qiagen, Germantown, MD, USA, 205313) following the manufacturer’s instructions. A SYBR-based PowerTrack master mix (Thermo Fisher Scientific A46012) was used to perform RT-qPCR on a QuantStudio 6 Pro Real-Time PCR system (Thermo Fisher Scientific) in 10 μL reactions.
The subject of series [6] is TGFBR1. The series can be described thus: qRT-PCR gene expression in drug-treated fibroblasts: TGFBR1. It is filed as cell-based, human. Particulars: 4 d treatment; 50 µM; GAPDH internal control.
Description: as §3, §4
For series [7], the system named is MMP1. The series can be described thus: qRT-PCR gene expression in drug-treated fibroblasts: MMP1. It is filed as cell-based, human. Particulars: 4 d treatment; 50 µM; GAPDH internal control.
Description: as §3, §4
The test system of series [8] is MMP3. Briefly: qRT-PCR gene expression in drug-treated fibroblasts: MMP3. It is filed as cell-based, human. To be noted: 4 d treatment; 50 µM; GAPDH internal control.
Description: as §3, §4
Series [9] can be described thus: Thin-layer chromatography of media from drug-treated fibroblasts. It counts as in vitro ADME, human. Particulars: fibroblast cultures, 50 µM.
Description: Media were extracted 1:1 with dichloromethane overnight, after which the solvent was separated and dried. Extracts (equivalent to 1 mL media) were resuspended in dichloromethane, spotted on Si-gel 60 F254 plates (EMD Millipore, Burlington, MA, USA, cat #1.05735.0001), and run in a mobile phase of 5:11:4 dichloromethane–hexane–acetone plus 0.5% v/v acetic acid. Plates were stained with p-anisaldehyde reagent (75 mL ethanol, 2.5 mL sulfuric acid, 1 mL acetic acid, and 2 mL p-anisaldehyde (Sigma Aldrich, St. Louis, MO, USA, A88107-100G)) and heated for 10 min at 105 °C.
Series [10] has as its system human dermal fibroblasts (CRL-2097). Particulars: 50 µM.
Description: as §1, §2
The mark [11] stands for this setting: cell-free culture media incubated 4 days, 50 µM ART drugs, GC-MS.
[12] abbreviates: cell-free culture media, 50 µM ART drugs, GC-MS.
Where [13] appears, read: 1 d treatment, 50 µM drug or tea normalized to 50 µM ART, % of solvent control.

In the case of `C[C@@H]1CC[C@H]2[C@@H](C)C(=O)O[C@@H]3O[C@@]4(C)CC[C@@H]1[C@]32OO4` [ART, artemisinin], in series [1], the “effects on the expressions of other markers (other than MMP1)” value is “lacked effects”. Moreover, the “α-SMA staining compared to solvent control” value in [2] is “substantial increase”. Besides, in [3] (setting [11]), the “concentration of dART in culture media, Day 4” value (“concentration of dART … Day 4” for short) was determined as 500 ng/mL. For the same molecule, the “concentration of the treatment drug (ART for the tea) in culture media, Day 4” value in series [3] (cell-free culture media incubated 4 days, 50 µM ART drugs, GC-MS, ND = not detected) amounted to 420 ng/mL. In series [3] (setting [12]), the “concentration of dART in culture media, Day 0” value (from here on “concentration of dART … Day 0”) was determined as 0 ng/mL. Moreover, the ART disappeared in series [3] (day 4, cell-free culture media) is given as more than 99%. Moreover, the “change in fibroblast viability” value in series [4] (1 d exposure, vs solvent control) is given as “no significant change”. In [4] (4 d treatment, 50 µM drug or tea infusion, % of respective control), the “decrease in fibroblast viability” value was “about 20%”.

Take `C[C@H]1[C@@H](O)O[C@@H]2O[C@@]3(C)CC[C@H]4[C@H](C)CC[C@@H]1[C@@]24OO3` [DHA, dihydroartemisinin]: in series [5], the “decrease in TGFB2 expression, fold change vs. solvent control” value is on record as 3.7 fold. In addition, the “decrease in TGFBR1 expression, fold change vs. solvent control” value in series [6] was determined as 4 fold. Moreover, the “increase in MMP1 expression, fold change vs. solvent control” value in series [7] stood at 8 fold. The “increase in MMP3 expression, fold change vs. solvent control” value in [8] was 51.8 fold. In addition, the “α-SMA staining compared to solvent control” value in [2] is on record as “considerably decreased”. The “treatment drug remaining in media (TLC)” value in [9] (after day 1) is listed as “nearly gone”. Moreover, in [9] (day 4), the “dART in media (TLC)” value is listed as “observed” and the “treatment drug (ART for the tea) remaining in media (TLC)” value was “undetectable”. Also, the “concentration of dART … Day 4” value in series [3] (setting [11]) is 6900 ng/mL. Moreover, the “concentration of dART … Day 0” value in series [3] (setting [12]) was 0 ng/mL. For the same molecule, in series [4] (setting [13]), the “decrease in fibroblast viability” value is approximately 45%.

Take `C[C@@H]1CC[C@H]2[C@@H](C)C(=O)O[C@@H]3O[C@@]4(C)CC[C@@H]1[C@]32O4` [dART, deoxyartemisinin]: the “change in fibroblast viability” value in series [4] (4 d treatment, vs control) is on record as “no change”.

For the molecule `CO[C@H]1O[C@@H]2O[C@@]3(C)CC[C@H]4[C@H](C)CC[C@@H]([C@H]1C)[C@@]24OO3` [AM, artemether], in [10], the “change in fibroblast viability” value was “no significant change”.

Consider `C[C@H]1[C@H](OC(=O)CCC(=O)O)O[C@@H]2O[C@@]3(C)CC[C@H]4[C@H](C)CC[C@@H]1[C@@]24OO3` [AS, artesunate], for which, in series [2], the “α-SMA staining compared to solvent control” value was “considerably decreased”. In addition, in series [3] (setting [11]), the “concentration of dART … Day 4” value is 1500 ng/mL. In [3] (setting [12]), the “concentration of dART … Day 0” value amounted to 0 ng/mL. The “decrease in fibroblast viability” value in [4] (setting [13]) was approximately 35%.
